Among the data in ChEMBL document CHEMBL5291721, “A preclinical secondary pharmacology resource illuminates target-adverse drug reaction associations of marketed drugs” (Nat Commun, 2023) are AC50 values, retold here.

Each structure is given as a SMILES string. Bounds are passed on as bounds.

As usually defined, the AC50 is the midpoint of the concentration-response curve, whichever way the signal moves.

Assay [1] has as its target T1, Adenosine receptor A3 (Homo sapiens, UniProt P0DMS8).
T1 sequence (P0DMS8 whole entry): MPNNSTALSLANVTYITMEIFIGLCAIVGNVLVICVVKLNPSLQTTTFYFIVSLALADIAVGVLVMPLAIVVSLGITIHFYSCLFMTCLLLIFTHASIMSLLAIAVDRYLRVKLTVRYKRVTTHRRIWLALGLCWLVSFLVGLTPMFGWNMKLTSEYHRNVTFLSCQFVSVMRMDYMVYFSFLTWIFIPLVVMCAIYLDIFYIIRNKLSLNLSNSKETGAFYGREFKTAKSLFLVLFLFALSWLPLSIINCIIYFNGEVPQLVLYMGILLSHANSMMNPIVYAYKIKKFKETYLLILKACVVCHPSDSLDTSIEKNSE

The target in assay [2] is D(3) dopamine receptor (Homo sapiens, UniProt P35462).
For assay [3], the target named is T2, 5-hydroxytryptamine receptor 1A (Homo sapiens, UniProt P08908).
T2 sequence (P08908 whole entry): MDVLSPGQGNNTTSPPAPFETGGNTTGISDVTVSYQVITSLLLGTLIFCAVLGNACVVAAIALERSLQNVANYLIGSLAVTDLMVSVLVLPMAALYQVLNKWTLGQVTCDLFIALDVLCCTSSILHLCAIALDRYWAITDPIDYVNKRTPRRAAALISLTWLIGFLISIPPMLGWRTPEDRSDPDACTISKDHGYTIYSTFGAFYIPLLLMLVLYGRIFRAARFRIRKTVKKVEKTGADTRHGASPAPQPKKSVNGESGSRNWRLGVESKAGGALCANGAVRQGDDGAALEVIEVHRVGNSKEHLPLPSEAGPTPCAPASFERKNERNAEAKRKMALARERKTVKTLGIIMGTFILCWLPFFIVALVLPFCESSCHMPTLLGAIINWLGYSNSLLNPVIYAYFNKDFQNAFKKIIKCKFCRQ
It counts as functional, cell-based.

Assay [4] deals with T3, Equilibrative nucleoside transporter 1 (Homo sapiens, UniProt Q99808).
T3 sequence (Q99808 whole entry): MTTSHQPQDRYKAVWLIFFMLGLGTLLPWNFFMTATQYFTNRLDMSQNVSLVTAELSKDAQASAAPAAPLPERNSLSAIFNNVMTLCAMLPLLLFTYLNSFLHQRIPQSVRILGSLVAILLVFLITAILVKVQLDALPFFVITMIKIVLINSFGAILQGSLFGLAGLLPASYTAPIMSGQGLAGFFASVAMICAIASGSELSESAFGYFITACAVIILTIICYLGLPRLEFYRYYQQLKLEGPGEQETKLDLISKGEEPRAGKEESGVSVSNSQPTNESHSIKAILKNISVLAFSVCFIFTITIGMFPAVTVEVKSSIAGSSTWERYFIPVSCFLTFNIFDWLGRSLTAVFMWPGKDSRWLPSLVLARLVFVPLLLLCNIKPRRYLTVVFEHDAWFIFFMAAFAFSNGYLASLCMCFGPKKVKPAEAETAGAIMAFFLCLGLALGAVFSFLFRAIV

Assay [5] has as its target Sodium-dependent noradrenaline transporter (Homo sapiens, UniProt P23975).
In assay [6] the target is Neuronal acetylcholine receptor subunit alpha-4 (Homo sapiens, UniProt P43681).
Assay [7] has as its target Growth hormone secretagogue receptor type 1 (Homo sapiens, UniProt Q92847).
Assay [8] deals with Motilin receptor (Homo sapiens, UniProt O43193).
For assay [9], the target named is Melanocortin receptor 3 (Homo sapiens, UniProt P41968).
For assay [10], the target named is T4, Adenosine receptor A1 (Homo sapiens, UniProt P30542).
T4 sequence (P30542 whole entry): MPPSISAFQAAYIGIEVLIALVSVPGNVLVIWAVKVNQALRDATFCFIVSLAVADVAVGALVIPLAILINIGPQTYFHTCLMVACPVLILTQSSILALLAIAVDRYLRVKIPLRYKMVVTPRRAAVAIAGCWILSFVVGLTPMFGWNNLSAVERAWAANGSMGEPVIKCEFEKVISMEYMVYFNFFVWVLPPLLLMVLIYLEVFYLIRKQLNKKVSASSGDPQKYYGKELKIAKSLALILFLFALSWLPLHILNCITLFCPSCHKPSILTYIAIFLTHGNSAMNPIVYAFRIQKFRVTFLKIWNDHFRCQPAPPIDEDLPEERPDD

Assay [11] concerns the target 5-hydroxytryptamine receptor 2B (Homo sapiens, UniProt P41595). It counts as functional, cell-based.
Assay [12] has as its target T5, Type-1 angiotensin II receptor (Homo sapiens, UniProt P30556).
T5 sequence (P30556 whole entry): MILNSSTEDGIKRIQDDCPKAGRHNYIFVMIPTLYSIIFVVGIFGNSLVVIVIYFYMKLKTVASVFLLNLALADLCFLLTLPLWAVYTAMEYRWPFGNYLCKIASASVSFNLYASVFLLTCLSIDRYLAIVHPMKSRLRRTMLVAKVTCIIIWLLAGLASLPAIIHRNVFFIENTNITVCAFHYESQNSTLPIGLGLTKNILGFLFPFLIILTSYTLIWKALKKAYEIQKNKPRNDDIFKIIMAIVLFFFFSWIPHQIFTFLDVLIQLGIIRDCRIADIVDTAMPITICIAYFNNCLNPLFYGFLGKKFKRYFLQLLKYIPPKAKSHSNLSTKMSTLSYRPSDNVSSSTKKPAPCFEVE

The target in assay [13] is T6, 5-hydroxytryptamine receptor 2C (Homo sapiens, UniProt P28335).
T6 sequence (P28335 whole entry): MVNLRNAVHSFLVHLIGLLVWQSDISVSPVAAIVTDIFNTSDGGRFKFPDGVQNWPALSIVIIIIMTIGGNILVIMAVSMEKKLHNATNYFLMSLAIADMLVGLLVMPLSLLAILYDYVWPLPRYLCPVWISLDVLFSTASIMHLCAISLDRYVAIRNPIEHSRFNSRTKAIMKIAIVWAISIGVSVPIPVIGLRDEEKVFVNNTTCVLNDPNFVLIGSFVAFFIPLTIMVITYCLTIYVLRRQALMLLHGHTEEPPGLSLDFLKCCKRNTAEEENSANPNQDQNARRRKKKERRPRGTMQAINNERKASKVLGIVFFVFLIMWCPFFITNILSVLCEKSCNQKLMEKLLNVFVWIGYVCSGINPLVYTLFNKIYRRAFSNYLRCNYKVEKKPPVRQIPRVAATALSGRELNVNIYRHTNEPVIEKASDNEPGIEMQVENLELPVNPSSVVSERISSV

For assay [14], the target named is 3',5'-cyclic-AMP phosphodiesterase 4D (Homo sapiens, UniProt Q08499). It counts as functional.
Note: assay procedure not described here.

3',5'-cyclic-AMP phosphodiesterase 4D, sequence (Q08499 whole entry): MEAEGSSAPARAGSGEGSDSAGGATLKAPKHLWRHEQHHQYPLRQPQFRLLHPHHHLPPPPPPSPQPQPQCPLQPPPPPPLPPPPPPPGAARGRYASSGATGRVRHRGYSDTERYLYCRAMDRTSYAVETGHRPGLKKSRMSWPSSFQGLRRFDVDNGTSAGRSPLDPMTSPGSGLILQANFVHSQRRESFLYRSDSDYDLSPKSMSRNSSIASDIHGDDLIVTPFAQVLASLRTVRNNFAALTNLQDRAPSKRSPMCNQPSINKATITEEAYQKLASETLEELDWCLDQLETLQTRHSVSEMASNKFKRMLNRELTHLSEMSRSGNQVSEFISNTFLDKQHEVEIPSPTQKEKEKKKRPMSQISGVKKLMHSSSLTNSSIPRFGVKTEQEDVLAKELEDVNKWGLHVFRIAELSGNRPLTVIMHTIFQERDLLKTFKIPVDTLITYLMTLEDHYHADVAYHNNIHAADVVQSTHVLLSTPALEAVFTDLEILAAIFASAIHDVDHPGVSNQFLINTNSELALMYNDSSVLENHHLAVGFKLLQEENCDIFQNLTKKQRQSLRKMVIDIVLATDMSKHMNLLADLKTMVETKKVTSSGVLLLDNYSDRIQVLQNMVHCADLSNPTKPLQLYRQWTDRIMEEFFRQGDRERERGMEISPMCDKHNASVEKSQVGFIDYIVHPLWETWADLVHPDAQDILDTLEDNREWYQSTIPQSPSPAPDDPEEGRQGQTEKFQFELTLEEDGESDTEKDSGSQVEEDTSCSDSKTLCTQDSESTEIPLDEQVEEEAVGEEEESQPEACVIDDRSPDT
5-hydroxytryptamine receptor 2B, sequence (P41595 whole entry): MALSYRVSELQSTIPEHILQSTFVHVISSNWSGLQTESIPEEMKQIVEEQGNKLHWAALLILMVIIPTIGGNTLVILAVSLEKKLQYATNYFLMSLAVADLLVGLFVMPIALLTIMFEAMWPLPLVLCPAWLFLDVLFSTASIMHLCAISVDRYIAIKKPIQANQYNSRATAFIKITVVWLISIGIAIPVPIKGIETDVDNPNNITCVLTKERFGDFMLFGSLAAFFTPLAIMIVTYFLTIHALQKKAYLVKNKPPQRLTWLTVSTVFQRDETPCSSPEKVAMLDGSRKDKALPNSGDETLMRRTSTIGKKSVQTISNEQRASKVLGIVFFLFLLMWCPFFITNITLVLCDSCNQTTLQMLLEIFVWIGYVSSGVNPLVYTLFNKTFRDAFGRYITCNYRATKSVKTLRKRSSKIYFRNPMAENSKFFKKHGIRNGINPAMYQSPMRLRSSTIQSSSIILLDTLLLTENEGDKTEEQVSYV
D(3) dopamine receptor, sequence (P35462 whole entry): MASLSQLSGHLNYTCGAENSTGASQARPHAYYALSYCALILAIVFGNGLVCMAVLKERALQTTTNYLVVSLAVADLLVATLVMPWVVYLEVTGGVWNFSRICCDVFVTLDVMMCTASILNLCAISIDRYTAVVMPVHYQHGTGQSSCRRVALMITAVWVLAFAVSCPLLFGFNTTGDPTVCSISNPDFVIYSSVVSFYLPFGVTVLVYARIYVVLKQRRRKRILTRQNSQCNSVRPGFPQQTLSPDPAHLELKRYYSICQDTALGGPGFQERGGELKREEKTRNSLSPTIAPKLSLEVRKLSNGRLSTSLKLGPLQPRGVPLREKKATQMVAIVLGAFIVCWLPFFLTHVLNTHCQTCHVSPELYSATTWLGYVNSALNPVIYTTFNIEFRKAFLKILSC
Sodium-dependent noradrenaline transporter, sequence (P23975 whole entry): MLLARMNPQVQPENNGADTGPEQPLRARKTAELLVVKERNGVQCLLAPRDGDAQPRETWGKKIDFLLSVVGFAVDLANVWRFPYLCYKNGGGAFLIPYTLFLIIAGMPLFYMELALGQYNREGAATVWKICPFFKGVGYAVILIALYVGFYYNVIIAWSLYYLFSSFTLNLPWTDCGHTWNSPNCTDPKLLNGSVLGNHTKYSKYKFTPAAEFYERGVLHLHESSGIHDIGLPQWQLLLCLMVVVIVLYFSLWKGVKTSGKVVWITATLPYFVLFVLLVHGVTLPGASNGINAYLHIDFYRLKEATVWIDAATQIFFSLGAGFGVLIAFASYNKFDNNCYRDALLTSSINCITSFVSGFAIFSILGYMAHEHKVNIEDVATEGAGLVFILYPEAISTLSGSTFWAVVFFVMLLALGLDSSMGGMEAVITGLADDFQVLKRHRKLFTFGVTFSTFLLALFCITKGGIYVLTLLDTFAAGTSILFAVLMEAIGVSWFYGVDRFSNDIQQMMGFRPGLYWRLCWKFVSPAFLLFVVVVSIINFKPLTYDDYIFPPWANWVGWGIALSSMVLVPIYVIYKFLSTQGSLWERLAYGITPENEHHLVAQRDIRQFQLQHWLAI
Motilin receptor, sequence (O43193 whole entry): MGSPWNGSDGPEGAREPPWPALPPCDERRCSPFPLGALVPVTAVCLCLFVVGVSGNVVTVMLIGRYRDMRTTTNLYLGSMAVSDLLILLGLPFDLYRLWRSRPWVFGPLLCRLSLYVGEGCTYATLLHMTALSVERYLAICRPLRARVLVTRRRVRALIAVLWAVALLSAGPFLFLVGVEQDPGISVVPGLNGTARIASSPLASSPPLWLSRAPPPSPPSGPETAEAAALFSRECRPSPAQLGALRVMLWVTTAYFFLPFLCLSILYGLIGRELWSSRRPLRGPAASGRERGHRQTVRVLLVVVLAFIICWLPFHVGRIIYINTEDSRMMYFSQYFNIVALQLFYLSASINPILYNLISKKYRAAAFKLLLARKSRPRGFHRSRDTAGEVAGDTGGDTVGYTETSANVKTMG
Melanocortin receptor 3, sequence (P41968 whole entry): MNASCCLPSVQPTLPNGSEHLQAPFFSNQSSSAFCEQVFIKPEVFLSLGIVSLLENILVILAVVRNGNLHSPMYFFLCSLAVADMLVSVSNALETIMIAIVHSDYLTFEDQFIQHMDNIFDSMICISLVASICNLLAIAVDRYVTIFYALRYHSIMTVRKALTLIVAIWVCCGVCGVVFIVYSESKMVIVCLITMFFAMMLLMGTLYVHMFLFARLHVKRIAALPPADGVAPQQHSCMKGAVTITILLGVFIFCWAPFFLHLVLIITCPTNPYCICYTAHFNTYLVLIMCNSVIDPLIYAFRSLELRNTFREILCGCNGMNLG
Growth hormone secretagogue receptor type 1, sequence (Q92847 whole entry): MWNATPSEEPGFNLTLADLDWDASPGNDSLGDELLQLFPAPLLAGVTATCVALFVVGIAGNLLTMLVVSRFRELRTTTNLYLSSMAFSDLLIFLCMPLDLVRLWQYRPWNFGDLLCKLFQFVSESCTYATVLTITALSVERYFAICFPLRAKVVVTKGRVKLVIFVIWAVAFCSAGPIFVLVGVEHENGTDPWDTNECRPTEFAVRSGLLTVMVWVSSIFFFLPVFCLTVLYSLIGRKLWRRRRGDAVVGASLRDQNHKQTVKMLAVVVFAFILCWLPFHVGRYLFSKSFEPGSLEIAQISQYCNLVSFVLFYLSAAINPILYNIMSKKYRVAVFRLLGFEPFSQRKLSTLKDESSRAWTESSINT
Neuronal acetylcholine receptor subunit alpha-4, sequence (P43681 whole entry): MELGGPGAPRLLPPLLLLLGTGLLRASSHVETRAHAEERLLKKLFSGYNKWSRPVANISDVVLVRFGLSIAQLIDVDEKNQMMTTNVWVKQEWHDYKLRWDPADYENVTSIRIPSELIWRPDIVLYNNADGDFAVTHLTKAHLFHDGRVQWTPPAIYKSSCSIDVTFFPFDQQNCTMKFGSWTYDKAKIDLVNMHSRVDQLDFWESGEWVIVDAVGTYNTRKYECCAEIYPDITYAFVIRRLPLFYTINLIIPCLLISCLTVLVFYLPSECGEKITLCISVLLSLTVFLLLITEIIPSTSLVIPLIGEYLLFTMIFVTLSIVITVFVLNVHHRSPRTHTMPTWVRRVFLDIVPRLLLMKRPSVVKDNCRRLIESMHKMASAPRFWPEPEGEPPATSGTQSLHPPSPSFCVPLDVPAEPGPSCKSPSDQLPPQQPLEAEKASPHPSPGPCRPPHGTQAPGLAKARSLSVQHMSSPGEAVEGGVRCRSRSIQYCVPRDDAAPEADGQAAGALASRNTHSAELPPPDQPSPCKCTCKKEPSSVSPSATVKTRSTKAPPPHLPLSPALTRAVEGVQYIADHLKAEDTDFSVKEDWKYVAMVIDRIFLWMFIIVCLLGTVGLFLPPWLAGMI

As to `COc1cc2c(cc1OC)C1CC(=O)C(CC(C)C)CN1CC2` (stereo unspecified) [TETRABENAZINE], the AC50 was > 30 µM in assay [1]; > 30 µM in assay [2]; 18 µM in assay [3]; > 30 µM in assay [4]; > 30 µM in assay [5]; > 30 µM in assay [6]. Further, the AC50 in assay [7], in [8], in [9], in assay [10], in [11] and in assay [12] was > 30 µM each time. The AC50 in [13] and in assay [14] was > 30 µM in each case.
On to `CCN(CC)CCn1c(=O)c(Cc2ccc(OC)cc2)nc2ccccc21` [CAROVERINE], for which the AC50 was 27 µM in assay [1]; 7.34 µM in assay [2]; > 30 µM in [3]; > 30 µM in [4]; > 30 µM in assay [5]; > 30 µM in [6]. Also, the AC50 in assay [7] is 6.47 µM; in assay [8], 16.8 µM; in assay [9], > 30 µM; in [10] it was > 30 µM; in assay [11], > 30 µM; in [12], > 30 µM. Further, the AC50 is 27 µM in assay [13] and 7.11 µM in [14].
Consider `C[C@@H](O)[C@H]1C(=O)N2C(C(=O)O)=C(SCCN=CN)C[C@H]12` [IMIPENEM ANHYDROUS], for which the AC50 is 180 µM in assay [1]; > 300 µM in assay [2]; > 300 µM in [3]; > 300 µM in assay [4]; > 300 µM in assay [5]; > 300 µM in assay [6]. Besides, the AC50 in assay [7], in [8], in assay [9], in assay [10], in [11] and in assay [12] was > 300 µM throughout. In addition, the AC50 in assay [13] and in assay [14] was > 300 µM in each case.
Consider `CN(C)CCN(Cc1ccccc1)c1ccccn1` [TRIPELENNAMINE], for which the AC50 was > 10 µM in assay [1]; > 10 µM in assay [2]; > 10 µM in [3]; > 30 µM in assay [4]; 13.4 µM in [5]; > 10 µM in assay [6]. For the same compound, the AC50 in assay [7], in assay [8], in [9], in assay [10], in assay [11] and in assay [12] was > 10 µM in each case. Further, the AC50 in assay [13] and in assay [14] was > 10 µM in each case.
`CN1CC2c3ccccc3Oc3ccc(Cl)cc3C2C1` (stereo unspecified) [ASENAPINE]: the AC50 in [1] was > 30 µM; in assay [2], 0.0044 µM; in assay [3], > 10 µM; in assay [4], > 30 µM; in assay [5] it was 17 µM; in assay [6], > 30 µM. Also, the AC50 is 24 µM in assay [7]; > 30 µM in [8]; > 30 µM in assay [9]; > 30 µM in assay [10]; > 30 µM in assay [11]; > 30 µM in assay [12]. The AC50 in assay [13] is 0.0006 µM; in assay [14], > 30 µM.
As to `NCCCCCC(=O)O` [AMINOCAPROIC ACID], the AC50 in [1] was > 10 µM; in assay [2], > 30 µM; in [3], > 10 µM; in [4] it was > 30 µM; in [5] it was 20.4 µM; in assay [6], > 10 µM. Besides, the AC50 in [7], in assay [8], in [9], in assay [10], in assay [11] and in [12] was > 10 µM each time. Further, the AC50 in assay [13] and in [14] was > 30 µM in each case.
`C[C@]12CCC(=O)C=C1CC[C@H]1[C@@H]3CC[C@](O)(C(=O)CO)[C@@]3(C)C[C@H](O)[C@@]12F` [FLUDROCORTISONE]: the AC50 in assay [1] was > 30 µM; in assay [2], > 30 µM; in assay [3], > 10 µM; in [4] it was > 30 µM; in [5] it was > 30 µM; in [6], > 10 µM. The AC50 in assay [7] is > 30 µM; in assay [8], > 10 µM; in [9] it was > 30 µM; in [10] it was > 30 µM; in assay [11], > 10 µM; in [12], > 30 µM. Moreover, the AC50 in assay [13] and in [14] was > 30 µM throughout.
As for `Cn1cnc2c(F)c(Nc3ccc(Br)cc3F)c(C(=O)NOCCO)cc21` [BINIMETINIB], the AC50 in assay [1], in assay [2], in assay [3], in assay [4], in assay [5] and in [6] was > 30 µM in each case. For the same compound, the AC50 in assay [7], in assay [8], in assay [9], in assay [10], in assay [11] and in [12] was > 30 µM each time. For the same compound, the AC50 in assay [13] and in [14] was > 30 µM each time.
Turning to `Cc1c(C)c2c(c(C)c1O)CCC(C)(COc1ccc(CC3SC(=O)NC3=O)cc1)O2` (stereo unspecified) [TROGLITAZONE], the AC50 in assay [1] is 8.48 µM; in [2] it was > 30 µM; in assay [3] it was > 30 µM; in assay [4] it was > 30 µM; in [5], 15 µM; in [6], > 30 µM. For the same compound, the half-maximal activity concentration (AC50) in assay [7] was > 30 µM; in assay [8] it was > 30 µM; in assay [9], > 30 µM; in assay [10] it was > 30 µM; in assay [11], > 30 µM; in assay [12] it was 15.5 µM. For the same compound, the results for the AC50 in assay [13] and in assay [14] were > 30 µM and 2.88 µM, respectively.
